In test [1] the test system is PrhMG, HMC3 and SIM-A9 microglia. The test is described as follows: Transwell migration assay of microglia. The format is cell-based, human and mouse. The following applies: TFPI2 recombinant protein 20 ng/ml. The procedure: For transwell migration assay, HMC3 microglia, SIM-A9 microglia, and PrhMG were suspended in serum-free culture medium and seeded into transwell 24-well plates with permeable polycarbonate membrane inserts (5.0 μm, Corning, #07-200-149). GSC conditioned media (CM), or basal cell culture medium with TFPI2 recombinant protein (BioVision, #7481-10) were added to the remaining receiver wells. The STAT6 inhibitor AS151749 (Selleck Chemicals, #S8685) was used to study the role of STAT6 in microglia migration. The CD51 inhibitor MK-0429 (MedChemExpress, #HY-15102) was used to study the role of CD51 in TFPI2-induced microglia migration. After 10 hrs, the migrated microglia were fixed and stained with crystal violet (Sigma, #C-3886). The number of transferred cells was counted using ImageJ (NIH, Bethesda, […]).

Test [2] deals with HMC3 microglia. Kind of test: Incucyte live-cell and scratch wound healing migration of microglia. The class given is cell-based, human. The following applies: TFPI2 recombinant protein 20 ng/ml; AS1517499 25 nM. How it is done:
The scratch-wound assay was performed (Ref. 74; incorporated by reference in its entirety). For tracking single cell movement, microglia were cultured in 96-well plates (Corning, #3599) with different treatments. Incucyte Live Cell Analysis System was used to record cell movement over time. The time-lapse images were reconstructed and analyzed using TrackMate (Refs. 75-76; incorporated by reference in its entirety). The speed of each individual cell was calculated by processing images with LoG detector and Linear Assignment Problem (LAP) tracker.

In test [3] the test system is SIM-A9, HMC3 microglia and PrhMG. The test is described as follows: Flow cytometry for CD206 and ARG1 (microglia immunosuppressive polarization). The class given is cell-based, human and mouse. The following applies: TFPI2 recombinant protein 20 ng/ml. The procedure:
For membrane protein staining, the single-cell suspensions were washed with PBS and then incubated with fixable viability dye (Invitrogen, #5211229035) on ice for 10 min. Following washing with PBS, cells were incubated with the anti-CD16/CD32 cocktail (BioLegend, #103132) in 2% BSA PBS to block Fc receptors for 30 min on ice. Different antibody combinations, including Percp/Cy5.5 anti-mouse CD45 (BioLegend, #103132), AF488 anti-mouse CD3 (BioLegend, #100210), BV421 anti-mouse CX3CR1 (BD Bioscience, #567531), BUV395 anti-mouse CD4 (BD Bioscience, #740208), BV711 anti-mouse CD8 (BioLegend, #100747), PE/Cy7 anti-mouse/human CD11b (BioLegend, #101216), PE anti-mouse CD68 (BD Bioscience, #566386), PE anti-mouse PD1 (BioLegend, #135205), AF647 anti-mouse CD206 (BD Bioscience, #565250), AF647 anti-human CD206 (BioLegend, #321116), PE anti-human CD69 (BioLegend, #310906), PE/Cy7 anti-mouse CD69 (BioLegend, #104512), and BV650 anti-human HLA-DR (BioLegend, #307650) were added to cell suspensions for 30 min on ice. […] Samples were read in BD FACSymphony flow cytometer and analyzed in FlowJo v10.8.1.
Intracellular protein staining was performed separately or followed by cell surface marker staining. […] Then cell suspensions were rewashed in permeabilization buffer and read in BD FACSymphony flow cytometer.
On the technique in general: In flow cytometry, cells or beads pass a laser one at a time.

The subject of test [4] is SIM-A9 and HMC3 microglia. Kind of test: RT-qPCR for microglia marker expression. The format is cell-based, human and mouse. The following applies: TFPI2 recombinant protein 20 ng/ml. How it is done: Cells were pelleted, and RNA was isolated with the RNeasy Mini Kit (Qiagen, #74106). RNA was quantified by NanoDrop spectrophotometers and then reverse-transcribed into cDNA by using the All-In-One 5×RT MasterMix (Applied Biological Materials, #G592) in T00 Thermal Cycler (Bio-Rad). RT-qPCR was performed using SYBR Green PCR Master Mix (Bio-Rad, #1725275) in CFX Connect Real-Time PCR Detection System (Bio-Rad). The expression of each gene was normalized to housekeeping genes.
A general note: Real-time PCR tracks product formation cycle by cycle.

In test [5] the target is HMC3 microglia. The test is described as follows: Human phospho-kinase antibody array. The class given is cell-based. Particulars: 20 ng/ml TFPI2 recombinant protein. The procedure: After starvation for 24 hrs followed by TFPI2 recombinant protein treatment for 1 hr, HMC3 cell lysate was prepared using a lysis buffer with […]. Phosphorylation profiles of kinases were determined using Proteome Profiler Human Phospho-Kinase Array Kit (Bio-Techne, #ARY003C) as the instruction manual. Signal was detected under ChemiDoc Touch Imaging System (Bio-Rad).

As to `NC(=O)c1cnc(NCCc2ccc(O)c(Cl)c2)nc1NCc1ccccc1` [AS1517499], in test [1] (AS1517499 at indicated concentrations), the “TFPI2-induced transwell migration of human and mouse microglia” value was “suppressed”. Also, the “TFPI2-induced HMC3 microglia migration, incucyte live-cell and scratch assays” value in the test with HMC3 microglia [2] is recorded as “impairment”. In test [3] (mouse and human microglia, AS1517499 25 nM), the “TFPI2-induced increase of immunosuppressive microglia (CD206 and ARG1 expression)” value was “negated”. In addition, in test [4] (AS1517499 25 nM), the “TFPI2-induced suppression of immunostimulatory microglia markers (MIF, IL23, CXCL11, IL6, TNFA, LFNG, HLA-DR)” value is listed as “countered”.

B1: TFPI2 recombinant protein (tissue factor pathway inhibitor 2; BioVision, #7481-10) (ligand, UniProt P48307 23-235, looked up)
chain: DAAQEPTGNNAEICLLPLDYGPCRALLLRYYYDRYTQSCRQFLYGGCEGNANNFYTWEACDDACWRIEKVPKVCRLQVSVDDQCEGSTEKYFFNLSSMTCEKFFSGGCHRNRIENRFPDEATCMGFCAPKKIPSFCYSPKDEGLCSANVTRYYFNPRYRTCDAFTYTGCGGNDNNFVSREDCKRACAKALKKKKKMPKLRFASRIRKIRKKQF
notes: Bought recombinant protein added to microglia at 20 ng/ml; also called recombinant TFPI2; secreted TFPI2
Consider B1, for which the “migration of microglia (SIM-A9, HMC3, PrhMG)” value in test [1] was “dramatically increased”. In addition, in test [3], the “immunosuppressive microglia (CD206 and ARG1 expression)” value is given as “increased”. The “expression of immunostimulatory microglia markers (RT-qPCR)” value in test [4] is reported as “suppressed”. The “kinases STAT6 and AKT in phospho-kinase array” value on HMC3 microglia [5] was “activated”.
